These results are taken from the supplement of paper PMC9663587.

Compound in one experiment: CC(=O)c1c(C)c2cnc(Nc3ccc(N4CCN(CCOCCOCCOCCNC(=O)COc5cccc6c5C(=O)N(C5CCC(=O)NC5=O)C6=O)CC4)cn3)nc2n(C2CCCC2)c1=O [BSJ-03-123]
The experiment can be described thus: GR value, 72 h; higher = faster growth (1 = untreated, <0 = killing).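 Also: breast cancer and non-malignant breast epithelial lines, nine half-log doses, viable cells counted by Hoechst and LIVE/DEAD dye imaging versus time-zero plates and DMSO controls.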 To be noted: 0.003162 µM.
On to CAL51, for which the GR value turned out to be 0.912 GR.

For CAL120, the GR value was 0.923 GR.

With CAMA1, the GR value was found to be 0.65 GR.

The experiment is the same for the next values; noted with them: 0.01 µM.
On to BT20, for which the GR value worked out at 0.759 GR.

With BT474, the GR value was 0.685 GR.

Turning to BT549, the GR value was found to be 1 GR.

CAL51: the GR value worked out at 0.915 GR.

As for CAL120, the GR value turned out to be 0.969 GR.

For CAMA1, the GR value came to 0.463 GR.

Staying with this experiment, now noted: 0.03162 µM.
Regarding BT20, the GR value is 0.7 GR.

For the cell line BT474, the GR value worked out at 0.727 GR.

Turning to BT549, the GR value worked out at 0.988 GR.

Turning to CAL51, the GR value was 0.898 GR.

CAL120: the GR value worked out at 0.906 GR.

CAMA1: the GR value is 0.391 GR.

Still in this experiment, the particulars now being: 0.1 µM.
With BT20, the GR value stood at 0.664 GR.

Take BT474: the GR value is 0.515 GR.

As to BT549, the GR value was 0.998 GR.

Turning to CAL51, the GR value came to 0.895 GR.

For CAL120, the GR value was determined as 0.861 GR.

As for CAMA1, the GR value was 0.264 GR.

The same experiment, now with this note: 0.3162 µM.
On to BT20, for which the GR value was 0.528 GR.

Turning to BT474, the GR value was 0.523 GR.

BT549: the GR value was found to be 0.976 GR.

In the case of CAL51, the GR value worked out at 0.818 GR.

For CAL120, the GR value is 0.9 GR.

Consider CAMA1, for which the GR value was 0.238 GR.

Still in this experiment, the particulars now being: 1 µM.
As to BT20, the GR value is 0.445 GR.

Take BT474: the GR value worked out at 0.364 GR.

Regarding BT549, the GR value worked out at 0.938 GR.

With CAL51, the GR value was 0.763 GR.

With CAL120, the GR value came to 0.755 GR.

As for CAMA1, the GR value was determined as 0.219 GR.

Still in this experiment, the particulars now being: 3.162 µM.
Turning to BT20, the GR value came to 0.365 GR.

As to BT474, the GR value was 0.386 GR.

Regarding BT549, the GR value is 0.88 GR.

Turning to CAL51, the GR value is 0.76 GR.

For CAL120, the GR value amounted to 0.759 GR.

As to CAMA1, the GR value came to 0.219 GR.

The experiment is the same for the next values; noted with them: 10 µM.
For the cell line BT20, the GR value was determined as 0.0085 GR.

As to BT474, the GR value stood at 0.0116 GR.

For BT549, the GR value was 0.0237 GR.

In the case of CAL51, the GR value was 0.121 GR.

In the case of CAL120, the GR value was determined as 0.234 GR.

With CAMA1, the GR value is 0.0155 GR.

Compound in another experiment: CC(=O)c1c(C)c2cnc(Nc3ccc(N4CCNCC4)cn3)nc2n(C2CCCC2)c1=O
The description is as above. To be noted: 0.0003162 µM.
Regarding BT20, the GR value is 1.07 GR.

With BT474, the GR value was found to be 1.12 GR.

Take BT549: the GR value was found to be 1.02 GR.

As for CAL51, the GR value came out at 0.968 GR.

For CAL120, the GR value turned out to be 1.02 GR.

For CAMA1, the GR value was 0.969 GR.

The experiment is the same for the next values; noted with them: 0.001 µM.
Take BT20: the GR value is 1.09 GR.

Turning to BT474, the GR value came out at 1.05 GR.

Take BT549: the GR value worked out at 1.04 GR.

On to CAL51, for which the GR value was found to be 1.02 GR.

Regarding CAL120, the GR value stood at 1.01 GR.

Take CAMA1: the GR value amounted to 0.973 GR.

The experiment is the same for the next values; noted with them: 0.003162 µM.
Regarding BT20, the GR value amounted to 0.956 GR.

On to BT474, for which the GR value amounted to 1.11 GR.

For the cell line BT549, the GR value turned out to be 1.03 GR.

Take CAL51: the GR value amounted to 0.982 GR.

With CAL120, the GR value turned out to be 0.992 GR.

For CAMA1, the GR value was 0.94 GR.

Staying with this experiment, now noted: 0.01 µM.
BT20: the GR value came to 0.809 GR.

With BT474, the GR value stood at 0.918 GR.

On to BT549, for which the GR value turned out to be 1.06 GR.

For CAL51, the GR value is 0.911 GR.

CAL120: the GR value amounted to 0.953 GR.

With CAMA1, the GR value was found to be 0.887 GR.

The experiment is the same for the next values; noted with them: 0.03162 µM.
On to BT20, for which the GR value is 0.567 GR.

On to BT474, for which the GR value turned out to be 0.735 GR.

As for BT549, the GR value came out at 1.06 GR.

Regarding CAL51, the GR value was determined as 0.783 GR.

CAL120: the GR value was determined as 0.815 GR.

For the cell line CAMA1, the GR value came to 0.678 GR.

Still in this experiment, the particulars now being: 0.1 µM.
Regarding BT20, the GR value came to 0.36 GR.

As to BT474, the GR value turned out to be 0.668 GR.

As for BT549, the GR value is 1.04 GR.

In the case of CAL51, the GR value was 0.646 GR.

With CAL120, the GR value is 0.756 GR.

As to CAMA1, the GR value was 0.442 GR.

Staying with this experiment, now noted: 0.3162 µM.
For BT20, the GR value was 0.24 GR.

For the cell line BT474, the GR value came out at 0.619 GR.

For the cell line BT549, the GR value stood at 1.03 GR.

As to CAL51, the GR value is 0.516 GR.

On to CAL120, for which the GR value came out at 0.761 GR.

As for CAMA1, the GR value came out at 0.303 GR.

The same experiment, now with this note: 1 µM.
Regarding BT20, the GR value was found to be 0.203 GR.

In the case of BT474, the GR value is 0.611 GR.

With BT549, the GR value is 1.08 GR.

Consider CAL51, for which the GR value was found to be 0.446 GR.

For the cell line CAL120, the GR value was 0.743 GR.

Consider CAMA1, for which the GR value turned out to be 0.3 GR.

Still in this experiment, the particulars now being: 3.162 µM.
With BT20, the GR value was found to be 0.156 GR.

Turning to BT474, the GR value was 0.544 GR.

With BT549, the GR value worked out at 1.07 GR.

As for CAL51, the GR value turned out to be 0.354 GR.

As for CAL120, the GR value came to 0.671 GR.

With CAMA1, the GR value is 0.288 GR.

Compound in a further experiment: CCN1CCN(Cc2ccc(Nc3ncc(F)c(-c4cc(F)c5nc(C)n(C(C)C)c5c4)n3)nc2)CC1
The description is as above. To be noted: 0.001 µM.
Consider BT20, for which the GR value worked out at 0.933 GR.

Turning to BT474, the GR value was 1.01 GR.

On to BT549, for which the GR value stood at 0.992 GR.

Turning to CAL51, the GR value is 0.966 GR.

As to CAL120, the GR value came to 0.93 GR.

Take CAMA1: the GR value was found to be 0.866 GR.

The same experiment, now with this note: 0.003162 µM.
As to BT20, the GR value came out at 0.9 GR.

Turning to BT474, the GR value turned out to be 0.837 GR.

As for BT549, the GR value was 1.03 GR.

Take CAL51: the GR value turned out to be 0.882 GR.

With CAL120, the GR value stood at 0.85 GR.

Take CAMA1: the GR value amounted to 0.777 GR.

The experiment is the same for the next values; noted with them: 0.01 µM.
With BT20, the GR value amounted to 0.69 GR.

In the case of BT474, the GR value was 0.806 GR.

As to BT549, the GR value was found to be 0.997 GR.

As to CAL51, the GR value is 0.752 GR.

Regarding CAL120, the GR value was found to be 0.715 GR.

For the cell line CAMA1, the GR value was found to be 0.44 GR.

Staying with this experiment, now noted: 0.03162 µM.
Take BT20: the GR value worked out at 0.489 GR.

As for BT474, the GR value was found to be 0.594 GR.

With BT549, the GR value was 1.02 GR.

For the cell line CAL51, the GR value was 0.569 GR.

For the cell line CAL120, the GR value was 0.659 GR.

Regarding CAMA1, the GR value is 0.272 GR.
